ChEMBL document CHEMBL1201861, “Genomics of Drug Sensitity in Cancer screening data, Wellcome Trust Sanger Institute”

Columns and labels:
CP50-MEL-B = assay: cells; format: functional, cell-based; conditions: Homo sapiens
Description: SANGER: Inhibition of human CP50-MEL-B cell growth in a cell viability assay.

ChaGo-K-1 = assay: cells; format: functional, cell-based; conditions: Homo sapiens
Description: SANGER: Inhibition of human ChaGo-K-1 cell growth in a cell viability assay.

D-542MG = assay: cells; format: functional, cell-based; conditions: Homo sapiens
Description: SANGER: Inhibition of human D-542MG cell growth in a cell viability assay.

DMS-153 = assay: cells; format: functional, cell-based, Homo sapiens; conditions: Homo sapiens, DMS-153
Description: SANGER: Inhibition of human DMS-153 cell growth in a cell viability assay.

DoTc2-4510 = assay: cells; format: functional, cell-based; conditions: Homo sapiens
EHEB = assay: cells; format: functional, cell-based; conditions: Homo sapiens
Description: SANGER: Inhibition of human EHEB cell growth in a cell viability assay.

G-401 = assay: cells; format: functional, cell-based; conditions: Homo sapiens
Description: SANGER: Inhibition of human G-401 cell growth in a cell viability assay.

HCC1395 = assay: cells; format: functional, cell-based; conditions: Homo sapiens
Description: SANGER: Inhibition of human HCC1395 cell growth in a cell viability assay.

HCC1806 = assay: cells; format: functional, cell-based; conditions: Homo sapiens
Description: SANGER: Inhibition of human HCC1806 cell growth in a cell viability assay.

HCC1937 = assay: cells; format: functional, cell-based; conditions: Homo sapiens
Description: SANGER: Inhibition of human HCC1937 cell growth in a cell viability assay.

Hs-578T = assay: cells; format: functional, cell-based; conditions: Homo sapiens
Description: SANGER: Inhibition of human Hs-578-T cell growth in a cell viability assay.

IGROV-1 = assay: cells; format: functional, cell-based; conditions: Homo sapiens
Description: SANGER: Inhibition of human IGROV-1 cell growth in a cell viability assay.

IM-9 = assay: SANGER: Inhibition of human IM-9 cell growth in a cell viability assay.; format: functional, cell-based; conditions: Homo sapiens, IM-9
IMR-5 = assay: cells; format: functional, cell-based, Homo sapiens; conditions: Homo sapiens, IMR-5; read-out: IC50
Description: SANGER: Inhibition of human IMR-5 cell growth in a cell viability assay.

LB373-MEL-D = assay: cells; format: functional, cell-based, Homo sapiens; conditions: Homo sapiens, LB373-MEL-D
Description: SANGER: Inhibition of human LB373-MEL-D cell growth in a cell viability assay.

LU-165 = assay: cells; format: functional, cell-based, Homo sapiens; conditions: Homo sapiens, LU-165
Description: SANGER: Inhibition of human LU-165 cell growth in a cell viability assay.

M059J = assay: cells; format: functional, cell-based; conditions: Homo sapiens
Description: SANGER: Inhibition of human M059J cell growth in a cell viability assay.

MC-CAR = assay: cells; format: functional, cell-based, Homo sapiens; conditions: Homo sapiens, MC-CAR
Description: SANGER: Inhibition of human MC-CAR cell growth in a cell viability assay.

MDA-MB-157 = assay: cells; format: functional, cell-based; conditions: Homo sapiens
Description: SANGER: Inhibition of human MDA-MB-157 cell growth in a cell viability assay.

MDA-MB-175-VII = assay: cells; format: functional, cell-based; conditions: Homo sapiens
MFH-ino = assay: cells; format: functional, cell-based, Homo sapiens; conditions: Homo sapiens, MFH-ino
Description: SANGER: Inhibition of human MFH-ino cell growth in a cell viability assay.

MKN-1 = assay: cells; format: functional, cell-based; conditions: Homo sapiens
Description: SANGER: Inhibition of human MKN1 cell growth in a cell viability assay.

MKN-45 = assay: cells; format: functional, cell-based; conditions: Homo sapiens
Description: SANGER: Inhibition of human MKN45 cell growth in a cell viability assay.

NB12 = assay: cells; format: functional, cell-based; conditions: Homo sapiens
Description: SANGER: Inhibition of human NB12 cell growth in a cell viability assay.

NCI-H1651 = assay: cells; format: functional, cell-based; conditions: Homo sapiens
Description: SANGER: Inhibition of human NCI-H1651 cell growth in a cell viability assay.

NCI-H1793 = assay: cells; format: functional, cell-based; conditions: Homo sapiens
Description: SANGER: Inhibition of human NCI-H1793 cell growth in a cell viability assay.

NCI-H1993 = assay: cells; format: functional, cell-based; conditions: Homo sapiens
Description: SANGER: Inhibition of human NCI-H1993 cell growth in a cell viability assay.

NCI-H2052 = assay: cells; format: functional, cell-based; conditions: Homo sapiens
Description: SANGER: Inhibition of human NCI-H2052 cell growth in a cell viability assay.

NCI-H2170 = assay: cells; format: functional, cell-based; conditions: Homo sapiens
Description: SANGER: Inhibition of human NCI-H2170 cell growth in a cell viability assay.

NCI-H2171 = assay: cells; format: functional, cell-based, Homo sapiens; conditions: Homo sapiens, NCI-H2171
Description: SANGER: Inhibition of human NCI-H2171 cell growth in a cell viability assay.

NCI-H524 = assay: cells; format: functional, cell-based, Homo sapiens; conditions: Homo sapiens, NCI-H524
Description: SANGER: Inhibition of human NCI-H524 cell growth in a cell viability assay.

NCI-H630 = assay: cells; format: functional, cell-based; conditions: Homo sapiens
Description: SANGER: Inhibition of human NCI-H630 cell growth in a cell viability assay.

NCI-H650 = assay: cells; format: functional, cell-based; conditions: Homo sapiens
Description: SANGER: Inhibition of human NCI-H650 cell growth in a cell viability assay.

NCI-H810 = assay: cells; format: functional, cell-based; conditions: Homo sapiens
Description: SANGER: Inhibition of human NCI-H810 cell growth in a cell viability assay.

NY = assay: cells; format: functional, cell-based; conditions: Homo sapiens
Description: SANGER: Inhibition of human NY cell growth in a cell viability assay.

OAW-42 = assay: cells; format: functional, cell-based; conditions: Homo sapiens
Description: SANGER: Inhibition of human OAW-42 cell growth in a cell viability assay.

OVCAR-5 = assay: cells; format: functional, cell-based; conditions: Homo sapiens
Description: SANGER: Inhibition of human OVCAR-5 cell growth in a cell viability assay.

PANC-03-27 = assay: cells; format: functional, cell-based; conditions: Homo sapiens
Description: SANGER: Inhibition of human PANC-03-27 cell growth in a cell viability assay.

RO82-W-1 = assay: cells; format: functional, cell-based; conditions: Homo sapiens
Description: SANGER: Inhibition of human RO82-W-1 cell growth in a cell viability assay.

RPMI-6666 = assay: cells; format: functional, cell-based, Homo sapiens; conditions: Homo sapiens, RPMI-6666
Description: SANGER: Inhibition of human RPMI-6666 cell growth in a cell viability assay.

RT-112 = assay: cells; format: functional, cell-based; conditions: Homo sapiens
Description: SANGER: Inhibition of human RT-112 cell growth in a cell viability assay.

S-117 = assay: cells; format: functional, cell-based; conditions: Homo sapiens
Description: SANGER: Inhibition of human S-117 cell growth in a cell viability assay.

SCLC-21H = assay: cells; format: functional, cell-based, Homo sapiens; conditions: Homo sapiens, SCLC-21H
Description: SANGER: Inhibition of human SCLC-21H cell growth in a cell viability assay.

SNU-387 = assay: cells; format: functional, cell-based; conditions: Homo sapiens
Description: SANGER: Inhibition of human SNU-387 cell growth in a cell viability assay.

SW1088 = assay: cells; format: functional, cell-based; conditions: Homo sapiens
Description: SANGER: Inhibition of human SW1088 cell growth in a cell viability assay.

SW1463 = assay: cells; format: functional, cell-based; conditions: Homo sapiens
Description: SANGER: Inhibition of human SW1463 cell growth in a cell viability assay.

SiHa = assay: cells; format: functional, cell-based; conditions: Homo sapiens
Description: SANGER: Inhibition of human SiHa cell growth in a cell viability assay.

AN3-CA = assay: cells; format: functional, cell-based; conditions: Homo sapiens
Description: SANGER: Inhibition of human AN3-CA cell growth in a cell viability assay.

ASPC1 = assay: cells; format: functional, cell-based; conditions: Homo sapiens
Description: SANGER: Inhibition of human AsPC-1 cell growth in a cell viability assay.

BFTC-909 = assay: cells; format: functional, cell-based; conditions: Homo sapiens
Description: SANGER: Inhibition of human BFTC-909 cell growth in a cell viability assay.

CAL-120 = assay: cells; format: functional, cell-based; conditions: Homo sapiens
Description: SANGER: Inhibition of human CAL-120 cell growth in a cell viability assay.

CAL-148 = assay: cells; format: functional, cell-based, Homo sapiens; conditions: Homo sapiens, CAL-148
Description: SANGER: Inhibition of human CAL-148 cell growth in a cell viability assay.

CAL-54 = assay: cells; format: functional, cell-based; conditions: Homo sapiens
Description: SANGER: Inhibition of human CAL-54 cell growth in a cell viability assay.

CAL-62 = assay: cells; format: functional, cell-based; conditions: Homo sapiens
Description: SANGER: Inhibition of human CAL-62 cell growth in a cell viability assay.

THP-1 = assay: cells; format: functional, cell-based, Homo sapiens; conditions: Homo sapiens, THP-1
Description: SANGER: Inhibition of human THP-1 cell growth in a cell viability assay.

TUR = assay: cells; format: functional, cell-based, Homo sapiens; conditions: Homo sapiens, TUR
Description: SANGER: Inhibition of human TUR cell growth in a cell viability assay.

U2OS = assay: cells; format: functional, cell-based, U-2-OS; conditions: Homo sapiens
Description: SANGER: Inhibition of human U-2-OS cell growth in a cell viability assay.

WSU-NHL = assay: cells; format: functional, cell-based, Homo sapiens; conditions: Homo sapiens, WSU-NHL
Description: SANGER: Inhibition of human WSU-NHL cell growth in a cell viability assay.

COLO-680N = assay: cells; format: functional, cell-based; conditions: Homo sapiens
Description: SANGER: Inhibition of human COLO-680N cell growth in a cell viability assay.

## O=S(=O)(O)c1ccc2cc(/N=N/c3cc(S(=O)(=O)O)c4cccnc4c3O)ccc2c1
CP50-MEL-B
  IC50: > 16 µM
ChaGo-K-1
  IC50: > 16 µM
D-542MG
  IC50: > 16 µM
DMS-153
  IC50: > 16 µM
DoTc2-4510
  IC50: > 16 µM
EHEB
  IC50: > 16 µM
G-401
  IC50: > 16 µM
HCC1395
  IC50: > 16 µM
HCC1806
  IC50: > 16 µM
HCC1937
  IC50: > 16 µM
Hs-578T
  IC50: > 16 µM
IGROV-1
  IC50: > 16 µM
IM-9
  IC50: > 16 µM
IMR-5
  IC50: > 16 µM
LB373-MEL-D
  IC50: > 16 µM
LU-165
  IC50: > 16 µM
M059J
  IC50: 14.9 µM
MC-CAR
  IC50: > 16 µM
MDA-MB-157
  IC50: > 16 µM
MDA-MB-175-VII
  IC50: > 16 µM
MFH-ino
  IC50: > 16 µM
MKN-1
  IC50: > 16 µM
MKN-45
  IC50: > 16 µM
NB12
  IC50: > 16 µM
NCI-H1651
  IC50: > 16 µM
NCI-H1793
  IC50: > 16 µM
NCI-H1993
  IC50: > 16 µM
NCI-H2052
  IC50: > 16 µM
NCI-H2170
  IC50: > 16 µM
NCI-H2171
  IC50: > 16 µM
NCI-H524
  IC50: > 16 µM
NCI-H630
  IC50: > 16 µM
NCI-H650
  IC50: > 16 µM
NCI-H810
  IC50: > 16 µM
NY
  IC50: > 16 µM
OAW-42
  IC50: > 16 µM
OVCAR-5
  IC50: > 16 µM
PANC-03-27
  IC50: > 16 µM
RO82-W-1
  IC50: > 16 µM
RPMI-6666
  IC50: > 16 µM
RT-112
  IC50: > 16 µM
S-117
  IC50: > 16 µM
SCLC-21H
  IC50: > 16 µM
SNU-387
  IC50: > 16 µM
SW1088
  IC50: > 16 µM
SW1463
  IC50: > 16 µM
SiHa
  IC50: > 16 µM
AN3-CA
  IC50: 14.1 µM
ASPC1
  IC50: > 16 µM
BFTC-909
  IC50: > 16 µM
CAL-120
  IC50: > 16 µM
CAL-148
  IC50: > 16 µM
CAL-54
  IC50: > 16 µM
CAL-62
  IC50: > 16 µM
THP-1
  IC50: > 16 µM
TUR
  IC50: > 16 µM
U2OS
  IC50: > 16 µM
WSU-NHL
  IC50: > 16 µM
COLO-680N
  IC50: > 16 µM

## COC(=O)[C@H](CCSC)NC(=O)c1ccc(NC[C@@H](N)CS)cc1-c1ccccc1
CP50-MEL-B
  IC50: > 1.02 µM
ChaGo-K-1
  IC50: > 1.02 µM
D-542MG
  IC50: > 1.02 µM
DMS-153
  IC50: > 1.02 µM
DoTc2-4510
  IC50: > 1.02 µM
EHEB
  IC50: > 1.02 µM
G-401
  IC50: > 1.02 µM
HCC1395
  IC50: > 1.02 µM
HCC1806
  IC50: > 1.02 µM
HCC1937
  IC50: > 1.02 µM
Hs-578T
  IC50: > 1.02 µM
IGROV-1
  IC50: > 1.02 µM
IM-9
  IC50: > 1.02 µM
IMR-5
  IC50: > 1.02 µM
LB373-MEL-D
  IC50: > 1.02 µM
LU-165
  IC50: > 1.02 µM
M059J
  IC50: > 1.02 µM
MC-CAR
  IC50: > 1.02 µM
MDA-MB-157
  IC50: > 1.02 µM
MDA-MB-175-VII
  IC50: > 1.02 µM
MFH-ino
  IC50: > 1.02 µM
MKN-1
  IC50: > 1.02 µM
MKN-45
  IC50: > 1.02 µM
NB12
  IC50: > 1.02 µM
NCI-H1651
  IC50: > 1.02 µM
NCI-H1793
  IC50: > 1.02 µM
NCI-H1993
  IC50: > 1.02 µM
NCI-H2052
  IC50: > 1.02 µM
NCI-H2170
  IC50: > 1.02 µM
NCI-H2171
  IC50: > 1.02 µM
NCI-H524
  IC50: > 1.02 µM
NCI-H630
  IC50: > 1.02 µM
NCI-H650
  IC50: > 1.02 µM
NCI-H810
  IC50: > 1.02 µM
NY
  IC50: > 1.02 µM
OAW-42
  IC50: > 1.02 µM
OVCAR-5
  IC50: > 1.02 µM
PANC-03-27
  IC50: > 1.02 µM
RO82-W-1
  IC50: > 1.02 µM
RPMI-6666
  IC50: > 1.02 µM
RT-112
  IC50: > 1.02 µM
S-117
  IC50: > 1.02 µM
SCLC-21H
  IC50: > 1.02 µM
SNU-387
  IC50: > 1.02 µM
SW1088
  IC50: > 1.02 µM
SW1463
  IC50: > 1.02 µM
SiHa
  IC50: > 1.02 µM
AN3-CA
  IC50: > 1.02 µM
ASPC1
  IC50: > 1.02 µM
BFTC-909
  IC50: > 1.02 µM
CAL-120
  IC50: > 1.02 µM
CAL-148
  IC50: > 1.02 µM
CAL-54
  IC50: > 1.02 µM
CAL-62
  IC50: > 1.02 µM
THP-1
  IC50: > 1.02 µM
TUR
  IC50: > 1.02 µM
U2OS
  IC50: > 1.02 µM
WSU-NHL
  IC50: > 1.02 µM
COLO-680N
  IC50: > 1.02 µM
